This data set relates to rodent lifetime carcinogenesis bioassay, tumor incidence TD50. As to the kind of experiment: chronic cancer bioassays in animals – CPDB, compiled studies (AID 1745844). The conditions noted are these: in feed.

Several values for one entry are separate records, joined by “and”; a condition that tells them apart may be missing. Equal entries are not always repeated. Activity calls are given as the source filed them. No rule for the calls is given here.

Broadly, the TD50 is the dose at which the toxic effect under study appears in half of the subjects.

Regarding `ClC1=C(Cl)C2(Cl)C3C(Cl)C(Cl)CC3C1(Cl)C2(Cl)Cl` (configuration not stated), the TD50 (mouse, strain B6C3F1, females, site: any site (literature study), lesion: several types, types named in the paper, dosed 80 weeks, study length 90 weeks) was found to be 5.16 mg/kg/day; the TD50 (mouse, strain B6C3F1, females, site: liver, lesion: hepatocellular adenoma + hepatocellular carcinoma + neoplastic nodule, dosed 80 weeks, study length 90 weeks) amounted to 4.89 mg/kg/day; the TD50 (mouse, strain B6C3F1, females, site: liver, lesion: hepatocellular carcinoma, dosed 80 weeks, study length 89 weeks) was 5.28 mg/kg/day; the TD50 (mouse, strain B6C3F1, females, site: liver, lesion: hepatocellular carcinoma, dosed 80 weeks, study length 90 weeks) was 4.89 mg/kg/day; the TD50 (mouse, strain B6C3F1, females, site: lung, lesion: alveolar/bronchiolar adenoma + alveolar/bronchiolar carcinoma, dosed 80 weeks, study length 90 weeks) turned out to be 228 mg/kg/day; the TD50 (mouse, strain B6C3F1, males, site: any site (literature study), lesion: several types, types named in the paper, dosed 80 weeks, study length 90 weeks) was determined as 2.31 mg/kg/day. The TD50 reads like this: (mouse, strain B6C3F1, males, site: liver, lesion: hepatocellular adenoma + hepatocellular carcinoma + neoplastic nodule, dosed 80 weeks, study length 90 weeks) 2.15 mg/kg/day; (mouse, strain B6C3F1, males, site: liver, lesion: hepatocellular adenoma, dosed 60 weeks, study length 61 weeks) 0.903 mg/kg/day; (mouse, strain B6C3F1, males, site: liver, lesion: hepatocellular adenoma, dosed 60 weeks, study length 72 weeks) 0.727 mg/kg/day; (mouse, strain B6C3F1, males, site: liver, lesion: hepatocellular adenoma, dosed 72 weeks, study length 72 weeks) 1.96 mg/kg/day; (mouse, strain B6C3F1, males, site: liver, lesion: hepatocellular carcinoma, dosed 60 weeks, study length 61 weeks) 1.91 mg/kg/day; (mouse, strain B6C3F1, males, site: liver, lesion: hepatocellular carcinoma, dosed 60 weeks, study length 68 weeks) 1.49 mg/kg/day. The TD50 (mouse, strain B6C3F1, males, site: liver, lesion: hepatocellular carcinoma, dosed 60 weeks, study length 72 weeks) is 2.67 mg/kg/day; the TD50 (mouse, strain B6C3F1, males, site: liver, lesion: hepatocellular carcinoma, dosed 68 weeks, study length 68 weeks) is 0.878 mg/kg/day; the TD50 (mouse, strain B6C3F1, males, site: liver, lesion: hepatocellular carcinoma, dosed 72 weeks, study length 72 weeks) is 2.96 mg/kg/day; the TD50 (mouse, strain B6C3F1, males, site: liver, lesion: hepatocellular carcinoma, dosed 80 weeks, study length 89 weeks) was 2.48 mg/kg/day; the TD50 (mouse, strain B6C3F1, males, site: liver, lesion: hepatocellular carcinoma, dosed 80 weeks, study length 90 weeks) was 2.15 mg/kg/day; the TD50 (mouse, strain B6C3F1, males, site: liver, lesion: several types, types named in the paper, dosed 60 weeks, study length 61 weeks) was 0.583 mg/kg/day. The TD50 is, setting by setting: (mouse, strain B6C3F1, males, site: liver, lesion: several types, types named in the paper, dosed 72 weeks, study length 72 weeks) 1.68 mg/kg/day; (mouse, strain B6C3F1, males, site: lung, lesion: alveolar/bronchiolar adenoma + alveolar/bronchiolar carcinoma, dosed 80 weeks, study length 90 weeks) 656 mg/kg/day; (mouse, strain C57BL/10J, males, site: liver, lesion: several types, types named in the paper, dosed 104 weeks, study length 104 weeks) 13.1 mg/kg/day; (mouse, strain Charles River CD1, females, site: liver, lesion: hepatoma, dosed 78 weeks, study length 78 weeks) 71.8 mg/kg/day; (mouse, strain Charles River CD1, females, site: liver, lesion: nodular hyperplasia, dosed 78 weeks, study length 78 weeks) 1.78 mg/kg/day; (mouse, strain Charles River CD1, males, site: liver, lesion: nodular hyperplasia, dosed 78 weeks, study length 78 weeks) 1.45 mg/kg/day. The TD50 runs as follows: (mouse, strain D2B6F1 mice, males, site: liver, lesion: hepatocellular adenoma, dosed 60 weeks, study length 61 weeks) 2.33 mg/kg/day; (mouse, strain D2B6F1 mice, males, site: liver, lesion: hepatocellular adenoma, dosed 69 weeks, study length 69 weeks) 1.29 mg/kg/day; (mouse, strain D2B6F1 mice, males, site: liver, lesion: hepatocellular adenoma, dosed 87 weeks, study length 87 weeks) 4.98 mg/kg/day; (mouse, strain D2B6F1 mice, males, site: liver, lesion: hepatocellular carcinoma, dosed 60 weeks, study length 61 weeks) 6.09 mg/kg/day; (mouse, strain D2B6F1 mice, males, site: liver, lesion: hepatocellular carcinoma, dosed 69 weeks, study length 69 weeks) 3.31 mg/kg/day; (mouse, strain D2B6F1 mice, males, site: liver, lesion: hepatocellular carcinoma, dosed 87 weeks, study length 87 weeks) 5.21 mg/kg/day. The TD50 is 1.93 mg/kg/day (mouse, strain D2B6F1 mice, males, site: liver, lesion: several types, types named in the paper, dosed 60 weeks, study length 61 weeks); 1.03 mg/kg/day (mouse, strain D2B6F1 mice, males, site: liver, lesion: several types, types named in the paper, dosed 69 weeks, study length 69 weeks); 3.83 mg/kg/day (mouse, strain D2B6F1 mice, males, site: liver, lesion: several types, types named in the paper, dosed 87 weeks, study length 87 weeks); 19.3 mg/kg/day (mouse, strain ICR, females, site: liver, lesion: hepatocellular adenoma, dosed 106 weeks, study length 106 weeks); 60 mg/kg/day (mouse, strain ICR, females, site: liver, lesion: hepatocellular carcinoma, dosed 106 weeks, study length 106 weeks); 13.4 mg/kg/day (mouse, strain ICR, females, site: liver, lesion: several types, types named in the paper, dosed 106 weeks, study length 106 weeks). The TD50 is, setting by setting: (mouse, strain ICR, males, site: all sites, lesion: hemangioma, dosed 106 weeks, study length 106 weeks) 4.01 mg/kg/day; (mouse, strain ICR, males, site: liver, lesion: hepatocellular adenoma, dosed 106 weeks, study length 106 weeks) 2.98 mg/kg/day; (mouse, strain ICR, males, site: liver, lesion: hepatocellular carcinoma, dosed 106 weeks, study length 106 weeks) 7.38 mg/kg/day; (mouse, strain ICR, males, site: liver, lesion: several types, types named in the paper, dosed 106 weeks, study length 106 weeks) 1.71 mg/kg/day; (rat, strain Fischer 344, females, site: mammary gland, lesion: fibroadenoma, dosed 130 weeks, study length 130 weeks) 0.32 mg/kg/day; (rat, strain Fischer 344, males, site: liver, lesion: hepatocellular adenoma, dosed 130 weeks, study length 130 weeks) 15.3 mg/kg/day. The TD50 (rat, strain Osborne-Mendel, females, site: any site (literature study), lesion: several types, types named in the paper, dosed 80 weeks, study length 109 weeks) is 18.4 mg/kg/day (inactive); the TD50 (rat, strain Osborne-Mendel, females, site: liver, lesion: hepatocellular adenoma + hepatocellular carcinoma + neoplastic nodule, dosed 80 weeks, study length 109 weeks) amounted to 121 mg/kg/day; the TD50 (rat, strain Osborne-Mendel, females, site: uterus, lesion: adenocarcinoma + sarcoma, dosed 80 weeks, study length 109 weeks) was 101 mg/kg/day (inactive); the TD50 (rat, strain Osborne-Mendel, males, site: all sites, lesion: fibrous histiocytoma, dosed 80 weeks, study length 109 weeks) was 42.5 mg/kg/day and 60.4 mg/kg/day (inactive); the TD50 (rat, strain Osborne-Mendel, males, site: any site (literature study), lesion: several types, types named in the paper, dosed 80 weeks, study length 109 weeks) was 21.6 mg/kg/day; the TD50 (rat, strain Osborne-Mendel, males, site: thyroid gland, lesion: follicular-cell adenoma + follicular-cell carcinoma, dosed 80 weeks, study length 109 weeks) was 41.6 mg/kg/day (inactive). The carcinogen call by setting is: (mouse, strain B6C3F1, males, site: liver, lesion: hepatocellular adenoma, dosed 60 weeks, study length 68 weeks) “positive”; (mouse, strain B6C3F1, males, site: liver, lesion: hepatocellular adenoma, dosed 68 weeks, study length 68 weeks) “positive”; (mouse, strain B6C3F1, males, site: liver, lesion: several types, types named in the paper, dosed 60 weeks, study length 68 weeks) “positive”; (mouse, strain B6C3F1, males, site: liver, lesion: several types, types named in the paper, dosed 68 weeks, study length 68 weeks) “positive”.
For the compound `Cc1ccc(N=Nc2c(O)c(S(=O)(=O)O)cc3cc(S(=O)(=O)O)ccc23)c(C)c1`, the TD50 was 21500 mg/kg/day (mouse, strain DDY, females, site: liver, lesion: hepatocellular adenoma, dosed 81 weeks, study length 81 weeks); 784 mg/kg/day (mouse, strain DDY, females, site: liver, lesion: hepatocellular carcinoma, dosed 81 weeks, study length 81 weeks); 8790 mg/kg/day (mouse, strain DDY, males, site: liver, lesion: hepatocellular adenoma, dosed 81 weeks, study length 81 weeks); 659 mg/kg/day (mouse, strain DDY, males, site: liver, lesion: hepatocellular carcinoma, dosed 81 weeks, study length 81 weeks); 704 mg/kg/day (rat, strain CFE, females, site: liver, lesion: nodular hyperplasia, dosed 104 weeks, study length 104 weeks); 2910 mg/kg/day (rat, strain CFE, males, site: liver, lesion: nodular hyperplasia, dosed 104 weeks, study length 104 weeks). The TD50 (rat, strain Wistar albino, females, site: liver, lesion: hepatocellular carcinoma, dosed 52 weeks, study length 91 weeks) was 2620 mg/kg/day; the TD50 (rat, strain Wistar albino, females, site: liver, lesion: hepatocellular carcinoma, dosed 91 weeks, study length 91 weeks) is 3270 mg/kg/day; the TD50 (rat, strain Wistar albino, females, site: liver, lesion: several types, types named in the paper, dosed 52 weeks, study length 91 weeks) was 233 mg/kg/day; the TD50 (rat, strain Wistar, males, site: liver, lesion: liver-cell adenoma, dosed 65 weeks, study length 65 weeks) was 1130 mg/kg/day. In addition, the carcinogen call (rat, strain Wistar albino, females, site: liver, lesion: several types, types named in the paper, dosed 91 weeks, study length 91 weeks) was “positive”.
In the case of `Cc1cc(N)ccc1N`, the TD50 was 33200 mg/kg/day (mouse, strain B6C3F1, females, site: any site (literature study), lesion: several types, types named in the paper, dosed 78 weeks, study length 94 weeks); 1960 mg/kg/day (mouse, strain B6C3F1, females, site: liver, lesion: hepatocellular adenoma + hepatocellular carcinoma + neoplastic nodule, dosed 78 weeks, study length 94 weeks); 364 mg/kg/day (inactive) and 364 mg/kg/day (mouse, strain B6C3F1, females, site: lung, lesion: alveolar/bronchiolar adenoma + alveolar/bronchiolar carcinoma, dosed 78 weeks, study length 94 weeks); 272 mg/kg/day (inactive) (mouse, strain B6C3F1, males, site: any site (literature study), lesion: several types, types named in the paper, dosed 78 weeks, study length 94 weeks); 288 mg/kg/day (mouse, strain B6C3F1, males, site: liver, lesion: hepatocellular adenoma + hepatocellular carcinoma + neoplastic nodule, dosed 78 weeks, study length 94 weeks); 3560 mg/kg/day (mouse, strain B6C3F1, males, site: lung, lesion: alveolar/bronchiolar adenoma + alveolar/bronchiolar carcinoma, dosed 78 weeks, study length 94 weeks). Further, under “rat, strain Fischer 344, males, site: liver, lesion: hepatocellular adenoma + hepatocellular carcinoma + neoplastic nodule, dosed 78 weeks, study length 106 weeks”, the TD50 amounted to 233 mg/kg/day. Besides, the carcinogen call was “negative (inactive)” (rat, strain Fischer 344, females, site: any site (literature study), lesion: several types, types named in the paper, dosed 78 weeks, study length 107 weeks) and “negative (inactive)” (rat, strain Fischer 344, males, site: any site (literature study), lesion: several types, types named in the paper, dosed 78 weeks, study length 106 weeks).

Values taken from PubChem BioAssay AID1745844 (Carcinogenic Potency Database (CPDB), 2022).
